Test results taken from patent publication US20240058390A1, “WNT+ ADIPOCYTES, EXOSOMES FROM WNT+ ADIPOCYTES, AND METHODS OF MAKING AND USING THEM” (The Administrators of the Tulane Educational Fund, priority 2020, published 2024).
“Also recorded” adds a separate entry of the source.

What was measured:
[1] = system: Wnt/β-catenin signaling; test: Wnt/β-catenin signaling activity (TCF/Lef:H2B-GFP reporter) in SVF precursors under pro-adipogenic conditions; type: cell-based, mouse; conditions: DKK1 100 ng/ml, IWP-2 5 μM, LF3 10 and 20 μM
Experimental: (§1) Immortalized cell lines, isolated adipose SVF cells, MEFs, and BMSCs were seeded into plates at the density of 4×10^3 cells/cm^2 (cell line and SVF) or 1.5×10^4 cells/cm2 (BMSCs) in MesenCult™ Expansion medium (Stemcell Technologies Inc., Cambridge, MA, catalog no. 05513), and treated with MesenCult™ Adipogenic Differentiation cocktail (Stemcell, catalog no. 05507) with 90% cell confluence. Cells were cultured for various days after pro-adipogenic induction prior to being harvested for following experiments. Adipogenesis was examined by lipid staining. Briefly, differentiated adipocytes were washed twice with PBS, fixed in 4% paraformaldehyde (PFA) for 15 min, and then stained with Oil Red O solution (Sigma-Aldrich, catalog no. 01391) for 20 min at ambient temperature or with 20 nM BODIPY (dipyrrometheneboron difluoride, catalog no. D3835, Thermo Fisher Scientific) in PBS for 15 min at 37° C. Subsequently, cells were washed with PBS before imaging.
(§2) For inhibition studies, SVF cells or precursor cell lines, 3 days after pro-adipogenic induction, were treated with each of the following molecules for 4 days: DKK1 (product 5897-DK-010, R&D Systems, Minneapolis, MN) (100 ng/ml), IWP-2 (catalog no. 72122, Stemcell), (5 μM), LF3 (catalog no. 58474, Selleck Chemicals) (10 and 20 μM, or 50 μM on cell lines), and LY294002 (catalog no. S1105, Selleck Chemicals) (2 and 14 μM), along with vehicles (PBS or DMSO).

[2] = system: Wnt^+ adipocytes in iWAT; test: β3-adrenoceptor agonist treatment of T/L-GFP mice, beiging in iWAT; type: in vivo, mouse; conditions: 1 mg/kg i.p. daily for 4 days
Experimental: (§3) For cold-exposure experiments, mice were singly caged and exposed to cold temperature at 6° C. for 2, 4, or 14 consecutive days. For β3-adrenoceptor agonist treatment, adult male mice were injected intraperitoneally with CL316,243 (CAS No. 138908-40-4, product C5976, Sigma-Aldrich Inc., St. Louis, MO) at 1 mg/kg body weight daily for 4 consecutive days prior to sample collection. Age-matched male littermates were treated intraperitoneally with saline as vehicle controls. […]
(§4) Adipose tissue was fixed in 4% PFA at 4° C. overnight, followed by dehydration through serial ethanol. […] After washing, sections were processed with a Vector TrueVIEW™ Autofluorescence Quenching Kit treatment (Vector Laboratories, Inc, Burlingame, CA, SP-8400) for 5 min to remove unspecific fluorescence on sections due to red blood cells and structural elements such as collagen and elastin. […] Images of tissue samples were captured using a Nikon confocal Microscope A1 HD25 (Nikon Instruments Inc., Melville, NY) and analyzed using ImageJ software (Version 1.51S). For quantification of Wnt^+ adipocytes, we randomly chose 12-18 images from each tissue of one mouse. Microscopic pictures (10× objective) were taken, and the total cell number and the number of GFP^+ adipocytes within each image were counted.

[3] = system: Wnt^+ adipocytes in iWAT of T/L-DTA mice; test: Tamoxifen-induced ablation of Wnt+ adipocytes in T/L-DTA mice; type: in vivo, mouse; conditions: 150 mg/kg i.p., 2 days
Experimental: To ablate Wnt^+ adipocytes in vivo, Fabp4-Flex-DTA mice were crossed with Tcf/Lef-CreERT2 mice to generate Tcf/Lef-CreERT2;Fabp4-Flex-DTA mice (“T/L-DTA” mice), which received 2-day tamoxifen administration via intraperitoneal injection at the dose of 150 mg/kg body weight. […] Forty-eight hours later, T/L-DTA mice and tamoxifen-treated littermate controls (Fabp4-Flex-DTA mice) were housed at 6° C. for 2 days, respectively.

[4] = system: Wnt^+ adipocytes in iWAT and iBAT; test: mTOR antagonist treatment of T/L-GFP mice, quantification of Wnt+ adipocytes; type: in vivo, mouse; conditions: T/L-GFP adult mice, 600 μg/kg i.p. daily for 5 days, vs vehicle
Experimental: as §3, §4

[5] = system: Wnt^− adipocytes induced from GFPneg precursor cell lines; test: Treatment of induced Wnt− adipocytes from GFPneg precursor cell lines (viability, maturation); type: cell-based, mouse
Source text: (§5) SVFs of iBAT from adult TCF/Lef:H2B-GFP male mice were separated and collected as described above. Cells at passage 1 were transduced with pUltra-hot-LT LV particles. Two days after transduction, cells were purified by performing FACS to remove mCherry- and Lin+ cells Immortalized cells were subjected to clonal selection through serial limited dilutions. The expression of GFP in cell colonies under pro-adipogenic induction was used as a readout for the accurate establishment of Wnt+ (>95%) and Wnt− (Wnt+=0%) adipocyte cell lines, respectively.
as §1, §2

[6] = system: iBAT-derived SVF cells; test: Adipogenic maturation of SVF-derived adipocytes (Oil Red O staining); type: cell-based, mouse; conditions: LF3, dose-dependent
Experimental: as §1, with “imaging. […]” for “imaging.”

[7] = system: Wnt^+ adipocytes induced from GFPpos-1 and GFPpos-2 cell lines; test: Treatment of induced Wnt+ adipocytes from GFPpos-1 and GFPpos-2 cell lines (GFP signal, cell death); type: cell-based, mouse
Source text: as §5, §1, §2

[8] = system: uninduced Wnt^+ and Wnt^− precursor cell lines; test: Treatment of uninduced Wnt+ and Wnt− precursor cell lines; type: cell-based, mouse; conditions: same dose of LF3
Source text: as §5
[…] S1105, Selleck Chemicals) (2 and 14 μM), along with vehicles (PBS or DMSO).

Question: Cc1ccc2nc(NC(=O)CSc3nc4c(c(=O)n3-c3ccccc3)SCC4)sc2c1 [1WP-2, IWP-2] was tested. Which “inhibition of Wnt/β-catenin signaling activity” value [1] did it give?
Answer: Its value is “failed to”.

Question: How did the “proportion of Wnt+ adipocytes in iWAT” value [2] turn out when C[C@H](Cc1ccc2c(c1)OC(C(=O)[O-])(C(=O)[O-])O2)NC[C@H](O)c1cccc(Cl)c1.[Na+].[Na+] [CL316,243] was run?
Answer: The value was “unaltered”.

Question: With CC/C(=C(\c1ccccc1)c1ccc(OCCN(C)C)cc1)c1ccccc1 [tamoxifen] as the molecule, how does the “ablation of Wnt+ adipocytes in iWAT” value [3] read?
Answer: Its value is “about 87%”.

Question: Which results are given for CO[C@H]1C[C@@H]2CC[C@@H](C)[C@@](O)(O2)C(=O)C(=O)N2CCCC[C@H]2C(=O)O[C@H]([C@H](C)C[C@@H]2CC[C@@H](OC(=O)C(C)(CO)CO)[C@H](OC)C2)CC(=O)[C@H](C)/C=C(\C)[C@@H](O)[C@@H](OC)C(=O)[C@H](C)C[C@H](C)/C=C/C=C/C=C/1C [temsirolimus, Temsirolimus]?
Answer: Wnt+ adipocyte numbers in iBAT [4]: dramatically reduced Wnt^+ adipocyte numbers; Wnt+ adipocyte numbers in iWAT [4]: dramatically reduced Wnt^+ adipocyte numbers

Question: Which results are given for LF3?
Answer: cell viability of induced Wnt− adipocytes ([5]; LF3): did not affect cell viability; maturation of Wnt− adipocytes ([5]; LF3): slowed down the maturation; adipogenic capacity of LF3-treated Wnt− adipocytes after return to normal pro-adipogenic medium ([5]; LF3, rescue experiment): resumed full adipogenic capacity; adipogenic maturation of SVF-derived adipocytes [6]: impaired/delayed adipogenic maturation; GFP expression in induced Wnt+ adipocytes ([7]; 50 μM LF3, first day): quenched GFP expression; also recorded: GFP signals are significantly quenched; cell number of induced Wnt+ adipocytes ([7]; 50 μM LF3, one day): obviously reduced cell numbers; cell death of induced Wnt+ adipocytes ([7]; 50 μM LF3, second day): massive cell death; also recorded: Remarkable cell death; impact on uninduced precursor cell lines [8]: showed no impacts; inhibition of Wnt/β-catenin signaling activity [1]: did inhibit

B1: DKK1: canonical Wnt receptor antagonist (R&D Systems 5897-DK-010) (protein, UniProt O94907 32-266, looked up)
Dickkopf-related protein 1: TLNSVLNSNAIKNLPPPLGGAAGHPGSAVSAAPGILYPGGNKYQTIDNYQPYPCAEDEECGTDEYCASPTRGGDAGVQICLACRKRRKRCMRHAMCCPGNYCKNGICVSSDQNHFRGEIEETITESFGNDHSTLDGYSRRTTLSSKMYHTKGQEGSVCLRSSDCASGLCCARHFWSKICKPVLKEGQVCTKHRRKGSHGLEIFQRCYCGEGLSCRIQKDHHQASNSSRLHTCQRH
Question: How did the “inhibition of Wnt/β-catenin signaling activity” value [1] turn out when B1 was run?
Answer: The value was “failed to”.
